What all share (type): biochemical
One experiment deals with T1, Pim-1 (Homo sapiens, UniProt P11309).
T1 construct: purchased Invitrogen PV3503
The experiment can be described thus: Pim-1 kinase assay (Pim enzyme assays, Example A). As to conditions: 1 mM ATP; read-out: Pim1 IC50.

Experiment [1] addresses T2, Pim2 (Homo sapiens, UniProt Q9P1W9).
T2 construct: purchased Invitrogen PV3649
Description: Pim-2 kinase assay (Pim enzyme assays, Example A). As to conditions: 1 mM ATP; read-out: Pim2 IC50. In short, it runs like this:
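TR-FRET assay with 1 nM enzyme, 0.05 μM fluorescein-CREBtide and 1 mM ATP in Tris pH 7.5 buffer with MgCl2, DTT, BSA and Tween-20, run 2 h at 25° C. Stopped with EDTA and Tb-labelled anti-CREB pSer133 antibody, then read after 30 min at room temperature.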

In the next experiment the target is T3, Pim-3 (Homo sapiens, UniProt Q86V86).
T3 construct: purchased Millipore 14-738
The experiment can be described thus: Pim-3 kinase assay (Pim enzyme assays, Example A). As to conditions: 1 mM ATP; read-out: Pim3 IC50.

In experiment [2] the target is T2, Pim2. Description: Pim2 assay analogous to Example A performed under Km ATP conditions. To be noted: Km ATP conditions rather than 1 mM ATP. As for the experimental part:
Pim-2 kinase assay—20 μL reactions were run in white 384 well polystyrene plates dotted with 0.8 μL compound/DMSO in the assay buffer (50 mM Tris, pH 7.5, 0.01% Tween-20, 5 mM mgCl2, 0.01% BSA, 5 mM DTT), containing 0.05 μM Fluorescein-labeled CREBtide peptide substrate (Invitrogen PV3508), 1 mM ATP, and 1 nM enzyme (Invitrogen PV3649) for 2 h at 25° C. Reactions were stopped by addition of 10 μL TR-FRET Dilution Buffer (Invitrogen PV3574) with 30 mM EDTA and 1.5 nM LanthaScreen Tb-CREB pSer133 antibody (Invitrogen PV3566). After 30 min. incubation at room temperature, plates were read on a PHERAstar FS plate reader (BMG Labtech).
Although the above in vitro assays are conducted at 1 mM ATP compounds can also be evaluated for potency and in vitro activity against PIM targets utilizing Km conditions, where the concentration of ATP is set to the Km value and the assay is more sensitive to PIM inhibition activity.

T2 sequence (Q9P1W9 whole entry): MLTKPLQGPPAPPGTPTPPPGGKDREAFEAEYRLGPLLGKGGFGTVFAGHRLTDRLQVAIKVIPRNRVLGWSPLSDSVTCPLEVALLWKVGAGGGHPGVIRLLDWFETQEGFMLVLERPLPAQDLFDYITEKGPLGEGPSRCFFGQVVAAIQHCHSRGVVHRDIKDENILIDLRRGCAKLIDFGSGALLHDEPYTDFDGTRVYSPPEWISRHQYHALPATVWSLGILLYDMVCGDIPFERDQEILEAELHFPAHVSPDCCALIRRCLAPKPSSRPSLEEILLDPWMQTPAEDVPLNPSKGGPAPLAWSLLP
T1 sequence (P11309 whole entry): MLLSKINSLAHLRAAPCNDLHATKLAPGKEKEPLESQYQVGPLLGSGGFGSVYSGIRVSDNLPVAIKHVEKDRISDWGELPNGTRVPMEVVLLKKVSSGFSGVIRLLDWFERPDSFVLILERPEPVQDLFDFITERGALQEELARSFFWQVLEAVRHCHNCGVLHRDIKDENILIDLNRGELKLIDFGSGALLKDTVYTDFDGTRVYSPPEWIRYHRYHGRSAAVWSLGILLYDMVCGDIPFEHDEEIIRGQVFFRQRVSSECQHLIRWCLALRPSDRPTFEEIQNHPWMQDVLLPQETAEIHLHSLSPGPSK

For `NC(=O)c1ccccc1-c1ccc2cc(N)c(C(=O)Nc3cnccc3N3CCC[C@H](N)C3)nc2c1` [Example 6, 3-Amino-7-[2-(aminocarbonyl)phenyl]-N-{4-[(3S)-3-aminopiperidin-1-yl]pyridin-3-yl}quinoline-2-carboxamide], the IC50 (in general, the concentration at which inhibition is half-maximal) on Pim-1 is more than 0.04 µM; at Pim2 [1], more than 2 µM; on Pim-3 it was more than 0.04 µM; at Pim2 [2], less than 0.1 µM.

For the origin of these results see US9278950B2, “Bicyclic aromatic carboxamide compounds useful as Pim kinase inhibitors” (Incyte Corporation, priority 2013, dated 2016).
